Results reported in the supplement of paper PMC4862054.

Columns and labels:
Experiment in all cases: normalised viability (% of control), CellTiter-Blue; higher = more viable cells (about 100 = DMSO control)
Conditions in all cases: incubation time: 72 h
[1] = system: CAL-51
Protocol: (§1)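 DSRT, CellTiter-Blue viability, 72 h incubation. Signal is normalised to DMSO and benzethonium chloride controls. Value is the normalised response at dose 6.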

[2] = system: HDQ-P1
Protocol: as §1

[3] = system: MDA-MB-453
Protocol: as §1

[4] = system: CAL-148
Protocol: as §1

[5] = system: CAL-85-1
Protocol: as §1

[6] = system: DU-4475
Protocol: as §1

## Cc1ccc(C(=O)N(CCCN)[C@@H](c2oc3cc(Cl)ccc3c(=O)c2Cc2ccccc2)C(C)C)cc1 (30 nM)
[1]
  normalised viability: 26.8%
[2]
  normalised viability: 74%
[3]
  normalised viability: 24.8%
[4]
  normalised viability: 18.3%
[5]
  normalised viability: 33.3%
[6]
  normalised viability: 24.3%

## NC(=O)Nc1cc(-c2cccc(F)c2)sc1C(=O)N[C@H]1CCCNC1 [AZD 7762] (30 nM)
[1]
  normalised viability: 103%
[2]
  normalised viability: 93.9%
[3]
  normalised viability: 110%
[4]
  normalised viability: 93.7%
[5]
  normalised viability: 99.5%
[6]
  normalised viability: 99.8%

## CO[C@H]1/C=C\C=C(/C)C(=O)NC2=CC(=O)C(NCCN(C)C)=C(C[C@@H](C)C[C@H](OC)[C@H](O)[C@@H](C)/C=C(\C)[C@@H]1OC(N)=O)C2=O [Alvespimycin] (30 nM)
[1]
  normalised viability: 63.5%
[2]
  normalised viability: 44.2%
[3]
  normalised viability: 7.17%
[4]
  normalised viability: 48%
[5]
  normalised viability: 62.8%
[6]
  normalised viability: 1.87%

## CCC1(c2ccc(N)cc2)CCC(=O)NC1=O (stereo not drawn) [Aminoglutethimide] (300 nM)
[1]
  normalised viability: 84.8%
[2]
  normalised viability: 72.9%
[3]
  normalised viability: 89.6%
[4]
  normalised viability: 104%
[5]
  normalised viability: 92.9%
[6]
  normalised viability: 93.4%

## NCC(=O)CCC(=O)O [Aminolevulinic acid] (300 nM)
[1]
  normalised viability: 102%
[2]
  normalised viability: 90%
[3]
  normalised viability: 117%
[4]
  normalised viability: 113%
[5]
  normalised viability: 91.4%
[6]
  normalised viability: 91.8%

## CCN(CCCOc1ccc2c(Nc3cc(CC(=O)Nc4cccc(F)c4)[nH]n3)ncnc2c1)CCOP(=O)(O)O [Barasertib] (30 nM)
[1]
  normalised viability: 72%
[2]
  normalised viability: 46%
[3]
  normalised viability: 67.6%
[4]
  normalised viability: 23.7%
[5]
  normalised viability: 77.7%
[6]
  normalised viability: 85.7%

## Cn1c(CCCC(=O)O)nc2cc(N(CCCl)CCCl)ccc21 [Bendamustine] (300 nM)
[1]
  normalised viability: 107%
[2]
  normalised viability: 61%
[3]
  normalised viability: 96.8%
[4]
  normalised viability: 114%
[5]
  normalised viability: 94.6%
[6]
  normalised viability: 108%

## C=C(c1ccc(C(=O)O)cc1)c1cc2c(cc1C)C(C)(C)CCC2(C)C [Bexarotene] (300 nM)
[1]
  normalised viability: 92.8%
[2]
  normalised viability: 54.5%
[3]
  normalised viability: 71.4%
[4]
  normalised viability: 92.8%
[5]
  normalised viability: 89.8%
[6]
  normalised viability: 116%

## CC(=O)Nc1ccc(C(=O)Nc2ccccc2N)cc1 [CI-994] (30 nM)
[1]
  normalised viability: 98.3%
[2]
  normalised viability: 100%
[3]
  normalised viability: 102%
[4]
  normalised viability: 92.8%
[5]
  normalised viability: 104%
[6]
  normalised viability: 85.6%

## COc1cc2nccc(Oc3ccc(NC(=O)C4(C(=O)Nc5ccc(F)cc5)CC4)cc3)c2cc1OC [Cabozantinib] (30 nM)
[1]
  normalised viability: 102%
[2]
  normalised viability: 62.5%
[3]
  normalised viability: 96.5%
[4]
  normalised viability: 111%
[5]
  normalised viability: 85.5%
[6]
  normalised viability: 96.1%

## N.N.[Cl][Pt][Cl] [Cisplatin] (300 nM)
[1]
  normalised viability: 108%
[2]
  normalised viability: 78.9%
[3]
  normalised viability: 107%
[4]
  normalised viability: 104%
[5]
  normalised viability: 99.5%
[6]
  normalised viability: 93.6%

## C[C@@H](Oc1cc(-c2cnn(C3CCNCC3)c2)cnc1N)c1c(Cl)ccc(F)c1Cl [Crizotinib] (300 nM)
[1]
  normalised viability: 99.7%
[2]
  normalised viability: 36.5%
[3]
  normalised viability: 71.1%
[4]
  normalised viability: 101%
[5]
  normalised viability: 92%
[6]
  normalised viability: 112%

## CN(C)/N=N/c1[nH]cnc1C(N)=O [Dacarbazine] (300 nM)
[1]
  normalised viability: 89.4%
[2]
  normalised viability: 88.8%
[3]
  normalised viability: 89%
[4]
  normalised viability: 84.3%
[5]
  normalised viability: 93.4%
[6]
  normalised viability: 92.7%
